Values after ≈ are worked out from the molar mass of the structure shown.
Columns and labels:
S. aureus = assay: Combination study with AMP or CIP
HK32 = assay: MBC on environmental MDR isolate; conditions: Enterobacter cloacae
MtMetAP1c = target: T1, MtMetAP1c (Mycobacterium tuberculosis, UniProt P9WK19); assay: MetAP enzyme inhibition, Morrison Ki (Met-AMC fluorescence); assay type: biochemical, M. tuberculosis; conditions: Morrison Ki method
T1 construct: made in house
Method in brief: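 Purified recombinant MtMetAP1c (1 µM) in 50 mM HEPES pH 8.0, 150 mM NaCl, CoCl2 at three molar equivalents of enzyme; reaction started with 50 μM Met-AMC, released AMC followed continuously by fluorescence (ex 380/em 460 nm). Ki by Morrison method from three substrate and ten inhibitor concentrations, in triplicate.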

E. coli [1] = assay: Minimum inhibitory concentration (broth dilution); assay type: cell-based, Escherichia coli; conditions: Escherichia coli, alone, read-out: MIC
B. subtilis [2] = assay: Growth inhibition screening (broth dilution); assay type: cell-based, Bacillus subtilis
Method in brief: (§1)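 Standard NCCLS broth dilution in nutrient broth, with compounds dissolved in DMSO and tested at a final 250 µg/mL per well. About 2.5 × 10^5 cells/mL were inoculated and incubated overnight at 37 °C. Growth was read as culture turbidity at 590 nm.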

HK1 = assay: MBC on environmental MDR isolate
E. faecalis [3] = assay: Growth kinetics; assay type: cell-based, Enterococcus faecalis
Method: (§2) Bacterial strains were tested as mentioned in Habib et al.. Briefly, ½ MIC, MIC and 2MIC values of PS9 were taken to assess the growth of bacterial strains whereas untreated cells and media were taken as positive and negative control, respectively.

HsMetAP1b = target: T2, HsMetAP1b (Homo sapiens, UniProt P53582); assay: MetAP enzyme inhibition, Morrison Ki (Met-AMC fluorescence); assay type: biochemical, H. sapiens; conditions: Morrison Ki method
T2 construct: made in house

S. aureus 33,591 = assay: In vivo antibacterial efficacy in infected larvae; conditions: PS9 1000 μg/mL 30 min post-infection, up to 72 h
E. coli [4] = assay: Minimum bactericidal concentration; assay type: cell-based, Escherichia coli
P. aeruginosa [5] = assay: Growth kinetics; assay type: cell-based, Pseudomonas aeruginosa
Method: as §2

LG1 = assay: MIC on environmental MDR isolate (microdilution)
JST63 = assay: MIC on environmental MDR isolate (microdilution)
P. aeruginosa [6] = assay: Growth inhibition screening (broth dilution); assay type: cell-based, Pseudomonas aeruginosa
Method in brief: as §1

E. faecalis [7] = assay: Time-kill curve assay; assay type: cell-based, Enterococcus faecalis
Method: A time–kill curve study was performed against bacterial strains (E. coli, E. faecalis, K. pneumonia and P. aeruginosa) to determine whether compound PS9 is bactericidal or bacteriostatic. MIC, 2MIC and 4MIC concentrations were employed for the time–kill assay as explained by Ali et al.. Untreated bacterial cells were used as a control. 100 µL aliquot was taken from each flask at regular intervals. An aliquot was further diluted in phosphate buffer saline solution and from each concentration 50 µL aliquot was inoculated on a nutrient agar plate and spread. Colonies were counted after the incubation of the plate at 37 °C. For each strain, the average (mean) colony count data (log10 CFU/mL) was plotted against time.

LG24 = assay: MIC on environmental MDR isolate (microdilution); conditions: Escherichia coli
LG71 = assay: MIC on environmental MDR isolate (microdilution); conditions: isolate LG71 Enterobacter cloacae
SH28 = assay: MBC on environmental MDR isolate; conditions: Aeromonas caviae
B. subtilis [8] = assay: Minimum inhibitory concentration (broth dilution); assay type: cell-based; conditions: Bacillus subtilis, alone

T1 sequence (P9WK19 whole entry): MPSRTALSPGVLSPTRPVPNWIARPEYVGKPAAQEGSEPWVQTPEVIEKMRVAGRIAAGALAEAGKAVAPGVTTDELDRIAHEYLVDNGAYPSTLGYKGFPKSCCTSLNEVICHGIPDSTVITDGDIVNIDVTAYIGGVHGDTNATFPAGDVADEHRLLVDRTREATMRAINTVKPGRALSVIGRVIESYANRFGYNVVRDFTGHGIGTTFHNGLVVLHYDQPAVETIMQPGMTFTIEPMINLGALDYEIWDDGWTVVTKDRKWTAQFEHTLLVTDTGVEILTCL

O=C1Nc2ccc(F)cc2/C1=N\NC(=O)c1cc(-c2cccc(Br)c2)n[nH]1 [PS9, (E)-3-(3-Bromophenyl)-N′-(5-Fluoro-2-Oxoindolin-3-Ylidene)-1H-Pyrazole-5-Carbohydrazide]
MIC in Combination (S. aureus; combination PS9 + AMP): 4 µg/mL
MIC in Combination (S. aureus; combination PS9 + CIP): 8 µg/mL
FICI (S. aureus; combination with AMP): 0.37
FICI (S. aureus; combination with CIP): 0.28
MBC (HK32): 64 µg/mL (≈ 149 µM)
Ki (MtMetAP1c): 0.31 µM
MIC (E. coli [1]): 16 µg/mL (≈ 37.4 µM)
inhibition at 250 µg/mL (B. subtilis [2]; Bacillus subtilis): ≥ 94%
% Growth Inhibition at 250 µg/mL (B. subtilis [2]; listed as C00009): 100%
MBC (HK1): 512 µg/mL (≈ 1200 µM)
growth (E. faecalis [3]; 2MIC): no growth was observed in both cultures at 2MIC concentration till 24 h
growth (E. faecalis [3]; MIC): no significant growth was found at MIC up to 10 h
Ki (HsMetAP1b): 632 ± 16.3 µM
effect on death of infected larvae (S. aureus 33,591): does not delay this
MBC/MIC Ratio (R*) (E. coli [4]): 4
MBC (E. coli [4]; Escherichia coli): 64 µg/mL (≈ 149 µM)
growth (P. aeruginosa [5]; 2MIC and MIC): no growth observed up to 24 h
time after inoculation at which log phase was observed (P. aeruginosa [5]; ½ MIC): 8 h
MIC (LG1): 32 µg/mL (≈ 74.7 µM)
MIC (JST63): 1000 µg/mL (≈ 2340 µM)
inhibition at 250 µg/mL (P. aeruginosa [6]; Pseudomonas aeruginosa): ≥ 94%
% Growth Inhibition at 250 µg/mL (P. aeruginosa [6]; listed as C00009): 100%
killing (log10 CFU/mL with time) (E. faecalis [7]; 4MIC, after 16 h): significant eradication
killing (log10 CFU/mL with time) (E. faecalis [7]; MIC, till 16 h): no 100% eradication
MIC (LG24): > 1020 µg/mL
MIC (LG71; Enterobacter cloacae): 1020 µg/mL (≈ 2390 µM)
MIC (LG71): >1024 µg/mL
MBC (SH28): 512 µg/mL (≈ 1200 µM)
MIC (B. subtilis [8]): 32 µg/mL (≈ 74.7 µM)

Source: article PMC9405123, “Design, Synthesis and Mechanistic Studies of Novel Isatin-Pyrazole Hydrazone Conjugates as Selective and Potent Bacterial MetAP Inhibitors” (Antibiotics, 2022)
